Measurements: BindingDB's records for patent US20250034169 (Sunshine Lake Pharma Co., 2025)

Columns and labels:
[1] = target: GTPase KRas [G12D]/RAF proto-oncogene serine/threonine-protein kinase (Homo sapiens, UniProt P01116+P04049, G12D); test: KRAS G12D/cRAF Binding Assay
Method: (§1) (1) Compound was prepared with DMSO, and diluted by 3-fold gradient with DMSO.(2) 0.1 μl of serial dilutions of the compound was added to a 384-well plate.(3) 5 μl of Tag2-KRASG12D>P at a specific concentration was added to the 384-well plate, and the plate was centrifuged at 1000 rpm for 1 min.(4) Then 5 μl of Tag1-cRAF at a specific concentration was added to the 384-well plate, and the plate was centrifuged at 1000 rpm for 1 min.(5) The plate was incubated at 25° C. for 15 min.(6) 10 μl of the mixture of anti-Tag1-Tb3+ and anti-Tag2-XL665 was added to the 384-well plate.(7) The plate was centrifuged at 1000 rpm for 1 min and incubated at 4° C. for 3 h.(8) The 665/615 nm ratio was read by a microplate reader.(9) Data analysis: The log value of the compound concentration was taken as the abscissa, and the 665/615 nm ratio was used as the ordinate, the data were analyzed by GraphPad Prism 8.0 software.

[2] = target: GTPase KRas (G12D) and Son of Sevenless Homolog 1 (SOS) (Homo sapiens, UniProt P01116+Q07889, G12D); test: KRAS G12D/SOS1 Binding Assay
Method: as §1, with “Tag1-SOS1” for “Tag1-cRAF”

| Structure (SMILES) | IC50 [1] [nM] | IC50 [2] [nM] |
| --- | --- | --- |
| C#Cc1c(F)ccc2cc(O)cc(-c3nc(C#CCC)c4c(N5CC6CCC(C6)C5)nc(OC[C@@]56CCCN5C[C@H](F)C6)nc4c3F)c12 [US20250034169, Compound 24] | 13.6 | 15.1 |
| C#Cc1c(F)ccc2cc(O)cc(-c3nc(C#CCOC)c4c(N5CC6CCC(C6)C5)nc(OC[C@@]56CCCN5C[C@H](F)C6)nc4c3F)c12 [US20250034169, Compound 25] | 15 | 16.8 |
| C#Cc1c(F)ccc2cc(O)cc(-c3nc(C#CC4CCCC4)c4c(N5CC6CCC(C6)C5)nc(OC[C@@]56CCCN5C[C@H](F)C6)nc4c3F)c12 [US20250034169, Compound 28] | 11.1 | 11.5 |
| C#Cc1c(F)ccc2cc(O)cc(-c3nc(C#C)c4c(N5C[C@H]6CC[C@@H]5C6)nc(OC[C@@]56CCCN5C[C@H](F)C6)nc4c3F)c12 [US20250034169, Compound 44] | 15.2 | 29.6 |
| [2H]C([2H])([2H])c1nc(-c2cc(O)cc3ccc(F)c(C#C)c23)c(F)c2nc(OC[C@@]34CCCN3C[C@H](F)C4)nc(N3CC4CCC(C4)C3)c12 [US20250034169, Compound 11] | 9.2 | 19.8 |
| C#Cc1c(F)ccc2cc(O)cc(-c3nc(C#C)c4c(N5CC6CC(C6)C5)nc(OC[C@@]56CCCN5C[C@H](F)C6)nc4c3F)c12 [US20250034169, Compound 41] | 22 | 31.4 |
| C#Cc1c(F)ccc2cc(O)cc(-c3nc(C(=O)OCC)c4c(N5CC6CCC(C6)C5)nc(OC[C@@]56CCCN5C[C@H](F)C6)nc4c3F)c12 [US20250034169, Compound 13] | 5.1 | 11.3 |
| C#Cc1c(F)ccc2cc(O)cc(-c3nc(OCCOC)c4c(N5CC6CCC(C6)C5)nc(OC[C@@]56CCCN5C[C@H](F)C6)nc4c3F)c12 [US20250034169, Compound 10] | 8.7 | 13.9 |
| C#Cc1c(F)ccc2cc(O)cc(-c3nc(C#C)c4c(N5CC6CCC(C6)C5)nc(OC[C@]56CCCN5C[C@H](F)C6)nc4c3F)c12 [US20250034169, Compound 49] | 6.9 | 15.7 |
| C#Cc1c(F)ccc2cc(O)cc(-c3nc(C#C)c4c(N5CCC[C@@H](C)C5)nc(OC[C@@]56CCCN5C[C@H](F)C6)nc4c3F)c12 [US20250034169, Compound 43] | 16.3 | 24.1 |
| C#Cc1c(F)ccc2cc(O)cc(-c3nc(C#CCCC(C)C)c4c(N5CC6CCC(C6)C5)nc(OC[C@@]56CCCN5C[C@H](F)C6)nc4c3F)c12 [US20250034169, Compound 30] | 8.8 | 13.4 |
| C#Cc1c(F)ccc2cc(O)cc(-c3nc(C#CCCC#N)c4c(N5CC6CCC(C6)C5)nc(OC[C@@]56CCCN5C[C@H](F)C6)nc4c3F)c12 [US20250034169, Compound 31] | 24.6 | 34.6 |
| C#Cc1c(F)ccc2cc(O)cc(-c3nc(OCC)c4c(N5CC6CCC(C6)C5)nc(OC[C@@]56CCCN5C[C@H](F)C6)nc4c3F)c12 [US20250034169, Compound 12] | 9.7 | 10.3 |
| C#Cc1c(F)ccc2cc(O)cc(-c3nc(OCCC(F)(F)F)c4c(N5CC6CCC(C6)C5)nc(OC[C@@]56CCCN5C[C@H](F)C6)nc4c3F)c12 [US20250034169, Compound 9] | 8.8 | 12.6 |
| C#Cc1c(F)ccc2cc(O)cc(-c3nc(C#CCC(C)C)c4c(N5CC6CCC(C6)C5)nc(OC[C@@]56CCCN5C[C@H](F)C6)nc4c3F)c12 [US20250034169, Compound 29] | 14.7 | 15.9 |

Other lines, results leading:

| IC50 [1] [nM] | IC50 [2] [nM] | Structure (SMILES) |
| --- | --- | --- |
| 9.9 | 18.5 | C#Cc1nc(-c2cc(O)cc3ccc(F)c(CC)c23)c(F)c2nc(OC[C@@]34CCCN3C[C@H](F)C4)nc(N3CC4CCC(C4)C3)c12 [US20250034169, Compound 65] |
| 18.5 | 15.7 | C#Cc1c(F)ccc2cc(O)cc(-c3nc(C#C)c4c(N5CC6CCC(C6)C5)nc(OCC5CCCC5)nc4c3F)c12 [US20250034169, Compound 56] |
| 19.1 | 36.2 | C#Cc1c(F)ccc2cc(O)cc(-c3nc(C#C)c4c(N5CC6CCC(C6)C5)nc(OC[C@H]5CCCN5C)nc4c3F)c12 [US20250034169, Compound 50] |
| 4.3 | 14.6 | C#Cc1c(F)ccc2cc(O)cc(-c3nc(C#C)c4c(N5C6CCCC5CC6)nc(OCC5(CN6CCCCC6)CC5)nc4c3F)c12 [US20250034169, Compound 53] |
| 11.1 | 20.8 | C#Cc1c(F)ccc2cc(O)cc(-c3nc(C#C)c4c(N5CC6CCC(C6)C5)nc(OC[C@@H]5CCCN5C)nc4c3F)c12 [US20250034169, Compound 51] |
| 7.7 | 15.2 | C#Cc1c(F)ccc2cc(O)cc(-c3nc(C#C)c4c(N5C6CCCC5CC6)nc(OCC5(CN(C)C)CC5)nc4c3F)c12 [US20250034169, Compound 52] |
| 9.8 | 14.8 | C#Cc1c(F)ccc2cc(O)cc(-c3nc(C#C)c4c(N5CC6CCC(C6)C5)nc(OCCC(F)(F)F)nc4c3F)c12 [US20250034169, Compound 55] |
